Values joined by “and” are separate entries in the source; they are usually repeats but may differ in a detail not shown here. Equal entries are not always repeated. Structures can show the parent of a compound that is named as a salt.

The series is described as follows: Metabolic stability in human liver microsomes. Conditions: substrate 1 μM, NADPH 1 mM, 37° C., 0-45 min; for microsomal CLint at 1 μM / half-life at 1 μM: human, microsomes; for microsomal CLint at 1 μM: pH 7.4, CLint; for half-life at 1 μM: pH 7.4, t1/2, pooled human liver microsomes 0.5 mg/mL. The method, then:
Pooled human liver microsomes were purchased from a commercial supplier. Microsomes were stored at −80° C. prior to use. […] A minus cofactor control incubation was included for each test compound where 0.1 M phosphate buffer pH 7.4 was added instead of NADPH (minus NADPH). Two control compounds (dextromethorphan and verapamil) were included with each test compound. All incubations were performed individually for each test compound. […] The reactions were stopped by transferring incubate into acetonitrile at the appropriate time points, in a 1:3 ratio. The termination plates were then centrifuged at 3,000 rpm for 20 min at 4° C. to precipitate the protein.
From a plot of ln peak area ratio (test compound peak area/internal standard peak area) against time, the gradient of the line was determined.
Elimination rate constant (k)=(−gradient)
where V=Incubation volume (μL)/Microsomal protein (mg).

Setting [1] is: pooled human liver microsomes 0.5 mg/mL.

`Cl.[2H]C([2H])([2H])Oc1cc(CCN)c(OC)cc1Br` [2-(4-Bromo-2-methoxy-5-(methoxy-d3)phenyl)ethan-1-amine hydrochloride] came in with a half-life at 1 μM of 2.5 h. Also, the intrinsic metabolic clearance (microsomal CLint) at 1 μM under setting [1] was 9.22 µL/min/mg.
The like results for `Cl.[2H]C([2H])([2H])Oc1cc(C([2H])([2H])C([2H])([2H])N)c(OC)cc1Br` [2-(4-bromo-2-methoxy-5-(methoxy-d3)phenyl)ethan-1,1,2,2-d4-1-amine hydrochloride] were, in that order, 2.2 h and 10.5 µL/min/mg.
`Cl.[2H]C([2H])(N)Cc1cc(OC([2H])([2H])[2H])c(Br)cc1OC` [2-(4-bromo-2-methoxy-5-(methoxy-d3)phenyl)ethan-1,1-d2-1-amine hydrochloride] yielded a half-life at 1 μM of 2.12 h. Besides, the microsomal CLint at 1 μM under setting [1] worked out at 10.9 µL/min/mg.
The like results for `Cl.[2H]C([2H])([2H])Oc1cc(Br)c(OC)cc1C([2H])([2H])C([2H])([2H])N` [2-(4-bromo-5-methoxy-2-(methoxy-d3)phenyl)ethan-1,1,2,2-d4-1-amine hydrochloride] were, in that order, 1.95 h and 11.9 µL/min/mg.
The like results for `Cl.[2H]C([2H])(N)Cc1cc(OC)c(Br)cc1OC([2H])([2H])[2H]` [2-(4-bromo-5-methoxy-2-(methoxy-d3)phenyl)ethan-1,1-d2-1-amine hydrochloride] were, in that order, 1.87 h and 12.4 µL/min/mg.
The like results for `Cl.[2H]C([2H])([2H])Oc1cc(Br)c(OC)cc1CCN` [2-(4-bromo-5-methoxy-2-(methoxy-d3)phenyl)ethan-1-amine hydrochloride] were, in that order, 1.27 h and 18.2 µL/min/mg.
Consider `COc1cc(CCN)c(OC)cc1Br` [2C-B HCl salt, 4-bromo-2,5-dimethoxyphenethylamine, reference compound], for which the half-life at 1 μM was 2.42 h. The same compound gave a microsomal CLint at 1 μM under setting [1] of 9.56 µL/min/mg.
Compound `COc1ccc2c(c1)[C@]13CCCC[C@@H]1[C@H](C2)N(C)CC3` [dextromethorphan, reference compound] registered a half-life at 1 μM of 0.452 h. Moreover, under setting [1], the microsomal CLint at 1 μM was 51.2 µL/min/mg; the CLint is 53.0 μL/min/mg protein and 55.0 μL/min/mg protein; the t1/2 is 0.437 h and 0.42 h.

What is called microsomal CLint is the rate of metabolic loss divided by the concentration. The half-life is the time needed for the level to fall by half in the phase considered. A high value points to slow decline.

Values taken from patent US20240294460A1, “DEUTERATED ANALOGS AND DERIVATIVES OF 4-BROMO-2,5-DIMETHOXYPHEN[…] USES THEREOF” (Terran Biosciences Inc., priority 2021, published 2024).
